Values after ≈ are worked out from the molar mass of the structure shown. Read-outs that look alike come from different tables or passages of the source.
How the values were obtained:
Gram-negative rods = experiment: Antibacterial activity against Gram-negative rods with or without PAβN (text summaries); assay type: cell-based; conditions: for efflux assay result (MIC with PAβN): Gram-negative rods; for reduction of MIC in the presence of PAβN: Enterobacterales
Protocol: Direct antimicrobial activity was determined against the following standard strains: (1) Gram-positive cocci: methicillin-sensitive Staphylococcus aureus ATCC 6538P (MSSA), methicillin-resistant S. aureus subsp. aureus ATCC 43300 (MRSA), S. epidermidis ATCC 12228, Enterococcus faecium ATCC 6057, E. faecalis ATCC 29212, Bacillus subtilis ATCC 6633; (2) Gram-negative bacteria from Enterobacteriales order: Klebsiella pneumoniae ATCC 13883, Escherichia coli ATCC 25922, Enterobacter cloacae DSM 6234, Proteus mirabilis ATCC 12453, Serratia marcescens ATCC 13880; (3) Gram-negative non-fermentative rods: Acinetobacter baumannii ATCC 19606, Pseudomonas aeruginosa ATCC 27853, Stenotrophomonas maltophilia ATCC 12714, S. maltophilia ATCC 13637, Burkholderia cepacia ATCC 25416, Bordetella bronchiseptica ATCC 4617; (4) yeasts: Candida albicans ATCC 90028, C. krusei ATCC 6258, C. parapsilosis ATCC 22019, C. tropicalis (Castellani) Berkhout ATCC 750, C. tropicalis IBA 171, C. guilliermondii IBA 155, and Saccharomyces cerevisiae ATCC 9763. Moreover, 5 clinical strains of methicillin-resistant S. aureus were also included: NMI 664 K, NMI 1576 K, NMI 1712 K, NMI 1991 K, and NMI 2541 K. All strains were stored at −80 °C. Prior to testing, each bacterial strain was subcultured twice on tryptic soy agar TSA (bioMerieux) medium and yeast strains on Sabouraud dextrose agar (bioMerieux) for 24–48 h at 30 °C to ensure viability. The antimicrobial activity was evaluated as previously described[26] by the disc-diffusion method and the MIC determination assays according to the EUCAST (ref. [71] and [72]) and CLSI (ref. [53] and [73]) recommendations. Assessment of bactericidal (MBC) and fungicidal (MFC) activities was performed according to the CLSI recommendations.[54,74] […] The new benzosiloxaboroles were dissolved in DMSO (Sigma).
Considering that the MDR efflux pumps often contribute to Gram-negative rod resistance, the MIC values of studied agents, with or without the pump inhibitor, PAβN (20 μg mL^−1) (Sigma), were determined.[75] The MIC was determined using Mueller–Hinton II broth medium (MHB) (Becton Dickinson) by the broth microdilution method, according to the CLSI guideliness.[53] To minimize the influence of PAβN on the destabilization of bacterial cell covers, the tests were conducted in the presence of 1 mM MgSO4 (Sigma).[76] At least a 4-fold reduction in the MIC value after the addition of PAβN was considered significant.[56,77]

[1] = tested on: S. aureus NMI 1712 K MRSA; experiment: Antibacterial activity against clinical MRSA: MIC/MBC; assay type: cell-based; conditions: Staphylococcus aureus, NMI 1712 K MRSA; for MIC: read-out: MIC
Protocol: (§1) Direct antimicrobial activity was determined against the following standard strains: (1) Gram-positive cocci: methicillin-sensitive Staphylococcus aureus ATCC 6538P (MSSA), methicillin-resistant S. aureus subsp. aureus ATCC 43300 (MRSA), S. epidermidis ATCC 12228, Enterococcus faecium ATCC 6057, E. faecalis ATCC 29212, Bacillus subtilis ATCC 6633; (2) Gram-negative bacteria from Enterobacteriales order: Klebsiella pneumoniae ATCC 13883, Escherichia coli ATCC 25922, Enterobacter cloacae DSM 6234, Proteus mirabilis ATCC 12453, Serratia marcescens ATCC 13880; (3) Gram-negative non-fermentative rods: Acinetobacter baumannii ATCC 19606, Pseudomonas aeruginosa ATCC 27853, Stenotrophomonas maltophilia ATCC 12714, S. maltophilia ATCC 13637, Burkholderia cepacia ATCC 25416, Bordetella bronchiseptica ATCC 4617; (4) yeasts: Candida albicans ATCC 90028, C. krusei ATCC 6258, C. parapsilosis ATCC 22019, C. tropicalis (Castellani) Berkhout ATCC 750, C. tropicalis IBA 171, C. guilliermondii IBA 155, and Saccharomyces cerevisiae ATCC 9763. Moreover, 5 clinical strains of methicillin-resistant S. aureus were also included: NMI 664 K, NMI 1576 K, NMI 1712 K, NMI 1991 K, and NMI 2541 K. All strains were stored at −80 °C. Prior to testing, each bacterial strain was subcultured twice on tryptic soy agar TSA (bioMerieux) medium and yeast strains on Sabouraud dextrose agar (bioMerieux) for 24–48 h at 30 °C to ensure viability. The antimicrobial activity was evaluated as previously described[26] by the disc-diffusion method and the MIC determination assays according to the EUCAST (ref. [71] and [72]) and CLSI (ref. [53] and [73]) recommendations. Assessment of bactericidal (MBC) and fungicidal (MFC) activities was performed according to the CLSI recommendations.[54,74] The following reference agents were used: fluconazole (in the case of fungi), linezolid (for Gram-positive bacteria), and nitrofurantoin (for Gram-negative rods). The new benzosiloxaboroles were dissolved in DMSO (Sigma).

S. aureus NMI 664 K MRSA = experiment: as above; assay type: cell-based; conditions: Staphylococcus aureus, NMI 664 K MRSA; for MIC: read-out: MIC
Protocol: as §1

[2] = tested on: S. aureus NMI 2541 K MRSA; experiment: as above; assay type: cell-based; conditions: Staphylococcus aureus, NMI 2541 K MRSA; for MIC: read-out: MIC
Protocol: as §1

[3] = tested on: S. aureus NMI 1991 K MRSA; experiment: as above; assay type: cell-based; conditions: Staphylococcus aureus, NMI 1991 K MRSA; for MIC: read-out: MIC
Protocol: as §1

[4] = tested on: S. aureus NMI 1576 K MRSA; experiment: as above; assay type: cell-based; conditions: Staphylococcus aureus, NMI 1576 K MRSA; for MIC: read-out: MIC
Protocol: as §1

physchem = experiment: physchem
Protocol: 0.1 M NaOH in H2O/MeOH (1 : 1 v/v).
The acidity constants of benzosiloxaboroles 1e, 2e, 6, 20 and 22–24 were determined by standard pH titration with 0.05 M aq. NaOH. The measurements were performed using a thermostated (25.0 °C) glass vessel equipped with a magnetic stirrer and a 10 mL burette. Prior to the measurement, the pH glass electrode was calibrated using borax and phosphate buffers. A solution of the analyzed compound (ca. 20–40 mg) in a mixture of MeOH/H2O (v/v 1 : 1, 30 mL) was titrated until the pH of the solution exceeded the value of 12.0.

[5] = read-out: MBC (first MBC where Eagle effect)
[6] = read-out: second MBC (Eagle effect)

Row | SMILES | efflux assay result (MIC with PAβN) (Gram-negative rods) | MBC [1, 5] | MIC [1] | MBC [1, 6] | MBC (S. aureus NMI 664 K MRSA; [5]) | MIC (S. aureus NMI 664 K MRSA) | MBC (S. aureus NMI 664 K MRSA; [6]) | MBC [2, 5] | MIC [2] | MBC [2, 6] | MBC [3, 5] | MIC [3] | MBC [3, 6] | MBC [4, 5] | MIC [4] | MBC [4, 6] | pKa (physchem) | reduction of MIC in the presence of PAβN (Gram-negative rods) | pKa (physchem; MeOH/H2O (1:1 v/v) solution)
1 | COC(=O)CCSc1ccc2c(c1F)[Si](C)(C)OB2O [Compound 4, Methyl 3-((7-fluoro-3-hydroxy-1,1-dimethyl-1,3-dihydrobenzo[c][1,2,5]oxasilaborol-6-yl)thio)propanoate] | actively extruded from bacterial cells | – | – | – | – | – | – | – | – | – | – | – | – | – | – | – | – | – | –
2 | C[Si]1(C)OB(O)c2cc(F)c(SCCC#N)c(F)c21 [Compound 6, 3-((5,7-Difluoro-3-hydroxy-1,1-dimethyl-1,3-dihydrobenzo[c][1,2,5]oxasilaborol-6-yl)thio)propanenitrile] | – | 12.5 µg/mL (≈ 41.8 µM) | 12.5 µg/mL (≈ 41.8 µM) | > 400 µg/mL | 25 µg/mL (≈ 83.6 µM) | 12.5 µg/mL (≈ 41.8 µM) | > 400 µg/mL | 25 µg/mL (≈ 83.6 µM) | 12.5 µg/mL (≈ 41.8 µM) | > 400 µg/mL | 25 µg/mL (≈ 83.6 µM) | 12.5 µg/mL (≈ 41.8 µM) | > 400 µg/mL | 25 µg/mL (≈ 83.6 µM) | 12.5 µg/mL (≈ 41.8 µM) | > 400 µg/mL | 5.2 | – | –
3 | C[Si]1(C)OB(O)c2cc(F)c(SC3CC(=O)NC3=O)c(F)c21 (stereo not shown) [Compound 12, 3-((5,7-Difluoro-3-hydroxy-1,1-dimethyl-1,3-dihydrobenzo[c][1,2,5]oxasilaborol-6-yl)thio)pyrrolidine-2,5-dione] | – | 200 µg/mL (≈ 583 µM) | 12.5 µg/mL (≈ 36.4 µM) | – | 200 µg/mL (≈ 583 µM) | 12.5 µg/mL (≈ 36.4 µM) | – | 200 µg/mL (≈ 583 µM) | 12.5 µg/mL (≈ 36.4 µM) | – | 100 µg/mL (≈ 291 µM) | 12.5 µg/mL (≈ 36.4 µM) | – | 100 µg/mL (≈ 291 µM) | 6.25 µg/mL (≈ 18.2 µM) | – | – | at least 4 -fold | –
4 | C[Si]1(C)OB(O)c2ccc(SC3CC(=O)NC3=O)c(F)c21 (stereo not shown) [Compound 13, 3-((7-Fluoro-3-hydroxy-1,1-dimethyl-1,3-dihydrobenzo[c][1,2,5]oxasilaborol-6-yl)thio)pyrrolidine-2,5-dione] | – | – | – | – | – | – | – | – | – | – | – | – | – | – | – | – | – | at least 4 -fold | –
5 | C[Si]1(C)OB(O)c2cc(F)c(SCCS(=O)(=O)c3ccccc3)c(F)c21 [Compound 20, 5,7-Difluoro-1,1-dimethyl-6-((2-(phenylsulfonyl)ethyl)thio)benzo[c][1,2,5]oxasilaborol-3(1H)-ol] | actively extruded from bacterial cells | 12.5 µg/mL (≈ 30.2 µM) | 6.25 µg/mL (≈ 15.1 µM) | 400 µg/mL (≈ 965 µM) | 12.5 µg/mL (≈ 30.2 µM) | 6.25 µg/mL (≈ 15.1 µM) | 400 µg/mL (≈ 965 µM) | 25 µg/mL (≈ 60.3 µM) | 6.25 µg/mL (≈ 15.1 µM) | 400 µg/mL (≈ 965 µM) | 12.5 µg/mL (≈ 30.2 µM) | 6.25 µg/mL (≈ 15.1 µM) | 400 µg/mL (≈ 965 µM) | 12.5 µg/mL (≈ 30.2 µM) | 6.25 µg/mL (≈ 15.1 µM) | 400 µg/mL (≈ 965 µM) | – | – | 5.7

Reference: paper PMC11110727, “Exploiting thiol-functionalized benzosiloxaboroles for achieving diverse substitution patterns – synthesis, characterization and biological evaluation of promising antibacterial agents” (RSC Medicinal Chemistry, 2024)
